From patent US12167998B2, “Spiro-lactam NMDA receptor modulators and uses thereof” (Tenacia Biotechnology (Hong Kong) Co., Limited, priority 2013, dated 2024)
Where two headings read alike, the source gives them in different places.

Columns and labels:
[1] = target: NMDA receptor glycine site, rat cortical membranes (Rattus norvegicus (Rat), UniProt P35439); test: [3H] MK-801 binding assay (potentiation of [3H]MK-801 binding)
Experimental: Assays were conducted as described in Moskal et al. (Moskal, J. R., Kuo, A. G., Weiss, C., Wood, P. L., O'Connor Hanson, A., Kelso, S., Harris, R. B., Disterhoft, J. F., 2005. GLYX-13: a monoclonal antibody-derived peptide that acts as an N-methyl-D-aspartate receptor modulator. Neuropharmacology. 49, 1077-87) The potentiation of [^3H]MK-801 binding (5 nM; 22.5 Ci/mmol) to well washed rat cortical membranes (200 μg) was measured under non-equilibrium conditions (15 min @ 25° C.) in the presence of increasing concentrations of test compounds and […]. Zero levels were determined in the absence of any glycine ligand and in the presence of 30 μM 5.7 DCKA. Maximal stimulation was measured in the presence of 1 mM glycine, and 500 μM glutamate was present in all samples. The facilitation of [^3H]MK-801 binding by tests compounds was calculated by using a 3 parameter log agonist vs. response equation (Graph pad Prism, USA) and potency (EC50, expressed in pM) and maximal activity (% maximal stimulation) were calculated for the test compound.

[2] = Porsolt test, floating time inhibition; assay type: in vivo; details: 1 hour post dose
[3] = system: hippocampal slices, Schaffer collateral-CA1; test: Long term potentiation in hippocampal slices; assay type: cell-based, rat; details: for LTP: LTP Augmentation (%): Table 4
Experimental: Assays were conducted as described in Zhang et al. (Zhang, X. L., Sullivan, J. A., Moskal, J. R., Stanton, P. K., 2008. A NMDA receptor glycine site partial agonist, GLYX-13, simultaneously enhances LTP and reduces LTD at Schaffer collateral-CA1 synapses in hippocampus. Neuropharmacology. 55, 1238-50) Sprague-Dawley rats (12-18 days old; Taconic Farms) were deeply anesthetized with isoflurane and decapitated. Rat brains were removed rapidly, submerged in ice-cold artificial cerebrospinal fluid (ACSF, 2-4° C.), which contained (in mM): 124 NaCl, 4 KCl, 2 MgSO4, 2 CaCl2, 1.25 NaH2PO4, 26 NaHCO3, 10 glucose; at pH 7.4, gassed continuously with 95% O2/5% CO2). The rat brains were hemisected, the frontal lobes cut off, and individual hemispheres glued using cyanoacrylate adhesive onto a stage immersed in ice-cold ACSF gassed continuously with 95% O2/5% CO2 during slicing. Coronal slices (400 μm thick) were cut using a Vibratome (Leica VT1200S), and transferred to an interface holding chamber for incubation at room temperature for a minimum of one hour before transferring to a Haas-style interface recording chamber continuously perfused at 3 ml/min with oxygenated ACSF at 32±0.5° C. Low resistance recording electrodes were made from thin-walled borosilicate glass (1-2 MΩ after filling with ACSF) and inserted into the apical dendritic region of the Schaffer collateral termination field in stratum radiatum of field CA1 region to record field excitatory postsynaptic potentials (fEPSPs). A bipolar stainless steel stimulating electrode (FHC Co.) was placed on Schaffer collateral-commissural fibers in CA3 stratum radiatum, and constant current stimulus intensity adjusted to evoke approximately half-maximal fEPSPs once each 30 s ([…]; 100 μs duration). fEPSP slope was measured before and after induction of LTP by linear interpolation from 20 to 80% of maximum negative deflection, and slopes confirmed to be stable to within ±10% for at least 15 min before commencing an experiment. […] LTP was induced by stimulation of Schaffer collateral axons with four high frequency theta burst stimulus trains of 10×100 Hz/5 pulse bursts each, applied at an inter-burst interval of 200 ms. Each train was 2 seconds in duration, and trains were applied 15 seconds apart. The signals were recorded using a Multiclamp 700B amplifier and digitized with a Digidata 1322 (Axon Instruments, USA). Data were analyzed using pClamp software (version 9, Axon Instruments) on an IBM-compatible personal computer.

[4] = Table 4, rat cortex, read-out: MK-801 Glycine Site Binding Assay: Rat Cortex EC50
[5] = Table 3, read-out: [3H] MK-801 binding assay: EC50

SMILES: C[C@@H](O)[C@@H](C(N)=O)N1CC2(CCCN2C(=O)OC(C)(C)C)C1=O (stereo partly drawn) [Compound 2S-FNL-2, tert-butyl 2-((2S,3R)-1-amino-3-hydroxy-1-oxobutan-2-yl)-1-oxo-2,5-diazaspiro[3,4] octane-5-carboxylate]
- EC50 [1, 4]: 20 nM

SMILES: C[C@@H](O)[C@@H](C(N)=O)N1CC2(CCCN2)C1=O (stereo partly drawn) [Compound 2S-FNL-3, (2S,3R)-3-hydroxy-2-(1-oxo-2,5-diazaspiro[3.4]octan-2-yl) butanamide]
- Unified Activity Data: Porsolt Floating Time Inhibition (Percent) ([2]; 3 mg/kg IV): 80%
- Unified Activity Data: LTP Augmentation (Percent) ([3]; LTP concentration 1 uM): 130%
- EC50 [1, 5]: 54.3 nM

SMILES: CC(N)C(C(N)=O)N1CC2(CCCN2)C1=O (stereo not drawn) [Compound 2S-FNL-7, 3-amino-2-(1-oxo-2,5-diazaspiro[3.4]octan-2-yl)butanamide]
- EC50 [1, 5]: 11 nM

SMILES: C[C@@H](O)[C@@H](C(=O)NCc1ccccc1)N1CC2(CCCN2C(=O)OC(C)(C)C)C1=O (stereo partly drawn) [Compound 2S-FNL-10, tert-butyl 2-((2S,3R)-1-(benzylamino)-3-hydroxy-1-oxobutan-2-yl)-1-oxo-2,5-diazaspiro[3.4] octane-5-carboxylate]
- LTP: LTP Augmentation (%) ([3]; LTP concentration 1 uM): 90%
- EC50 [1, 4]: 0.00119 nM

SMILES: C[C@@H](O)[C@@H](C(=O)NCc1ncno1)N1CC2(CCCN2C(=O)OC(C)(C)C)C1=O (stereo partly drawn) [Compound 2S-FNL-14, tert-butyl 2-((2S,3R)-1-(((1,2,4-oxadiazol-5-yl)methyl)amino)-3-hydroxy-1-oxobutan-2-yl)-1-oxo-2,5-diazaspiro[3.4] octane-5-carboxylate]
- LTP: LTP Augmentation (%) ([3]; LTP concentration 1 uM): 120%
- EC50 [1, 4]: 0.0613 nM

SMILES: NC(=O)[C@H](CO)N1CC2(CCCN2)C1=O (stereo partly drawn) [Compound 2S-FNL-21, (2S)-3-hydroxy-2-(1-oxo-2,5-diazaspiro[3.4]octan-2-yl)propanamide]
- Unified Activity Data: LTP Augmentation (Percent) ([3]; LTP concentration 0.1 uM): 80%

SMILES: CC(=O)O[C@H](C)[C@@H](C(=O)N1CCCC1)N1CC2(CCCN2)C1=O (stereo partly drawn) [Compound 2S-FNL-27, (2R,3S)-4-oxo-3-(1-oxo-2,5-diazaspiro[3.4]octan-2-yl)-4-(pyrrolidin-1-yl) butan-2-yl acetate]
- EC50 [1, 5]: 0.00349 nM

SMILES: CC1CCC2(CN([C@H](C(N)=O)[C@@H](C)O)C2=O)N1C(=O)OC(C)(C)C (stereo partly drawn) [Compound 2S-FNL-33, tert-butyl 2-((2S,3R)-1-amino-3-hydroxy-1-oxobutan-2-yl)-6-methyl-1-oxo-2,5-diazaspiro[3.4] octane-5-carboxylate]
- LTP: LTP Augmentation (%) ([3]; LTP concentration 1 uM): 140%
- EC50 [1, 4]: 18.9 nM

SMILES: CC1CCC2(CN([C@H](C(N)=O)[C@@H](C)O)C2=O)N1 (stereo partly drawn) [Compound 2S-FNL-34, (2S,3R)-3-hydroxy-2-(6-methyl-1-oxo-2,5-diazaspiro[3.4]octan-2-yl) butanamide]
- Unified Activity Data: Porsolt Floating Time Inhibition (Percent) ([2]; 1 mg/kg PO): 73%
- Unified Activity Data: LTP Augmentation (Percent) ([3]; LTP concentration 0.1 uM): 100%

SMILES: CC1CCC2(N1)C(=O)N([C@H](C(=O)N1CCCC1)[C@@H](C)O)C2C (stereo partly drawn) [Compound 2S-FNL-38, 2-((2S,3R)-3-hydroxy-1-oxo-1-(pyrrolidin-1-yl)butan-2-yl)-3,6-dimethyl-2,5-diazaspiro[3.4]octan-1-one]
- EC50 [1, 4]: 3.31 nM

SMILES: C[C@@H](O)[C@@H](C(N)=O)N1CC2(CCCN2)C1=O (stereo partly drawn) [Compound X, (2S,3R)-3-hydroxy-2-(1-oxo-2,5-diazaspiro[3,4]octan-2-yl)butanamide]
- long-term potentiation after high frequency stimulation of Schaffer collateral-evoked NMDA e.p.s.c.s in CA1 pyramidal neurons ([3]; tested at 1 μM, FIG. 2): increased long-term potentiation
- Emax ([1]; maximal stimulation measured with 1 mM glycine): 38%
- pEC50 ([1]; rat cortical membranes, 50 μM glutamate): 7.4
- EC50 ([1]; rat cortical membranes, 50 μM glutamate, read-out: pEC50 (converted)): 39.8 nM
